IC50 data for 36 compounds are collected here from patent US11629139B2 (priority 2017, dated 2023).

Read-outs that look alike come from different tables or passages of the source.

The assay deals with vesicular stomatitis virus particles (VSV) pseudotyped with EboV Zaire GP. The assay can be described thus: microbe, parasite or virus in culture. It is filed as cell-based.

Regarding `O=C(CC1CCC(F)(F)CC1)NCC(=O)N1CCN(Cc2cc(Br)ccc2Cl)CC1` [Compound 1374, N-(2-(4-(5-Bromo-2-chlorobenzyl)piperazin-1-yl)-2-oxoethyl)-2-(4,4-difluorocyclohexyl)acetamide], the IC50 (commonly the point on the concentration scale where inhibition reaches its midpoint) (Vesicular stomatitis virus) was more than 2000 nM.
Where the note is “Vesicular stomatitis virus”, `COC(=O)c1ccc(COc2ccccc2CN2CCN(C(=O)CNC(=O)CC3CC(F)(F)C3)CC2)cc1` [Compound 1315, Methyl 4-((2-((4-((2-(3,3-difluorocyclobutyl)acetyl)glycyl)piperazin-1-yl)methyl)phenoxy)methyl)benzoate] yielded a 50% inhibitory concentration (IC50) of 400 nM.
Still for that read-out and setting: to `O=C(NCC(=O)N1CCN(Cc2cc(Cl)cc(F)c2O)CC1)C1CC12CCC(F)(F)CC2` (stereo not drawn) [Compound 1404, N-(2-(4-(5-chloro-3-fluoro-2-hydroxybenzyl)piperazin-1-yl)-2-oxoethyl)-6,6-difluorospiro[2.5]octane-1-carboxamide] belongs 630 nM; to `[2H]C([2H])(c1cc(Cl)ccc1NCc1ccc(S(C)(=O)=O)cn1)N1CCN(C(=O)CNC(=O)[C@@H]2CC23CCC(F)(F)CC3)CC1` [Compound 1586], 45 nM.
Still for that read-out and setting: to `COC(=O)c1ccc(COc2ccccc2CN2CCN(C(=O)CNC(=O)C3CC3(C)C)CC2)cc1` (stereo not drawn) [Compound 1317, Methyl 4-((2-((4-((2,2-dimethylcyclopropane-1-carbonyl)glycyl)piperazin-1-yl)methyl)phenoxy)methyl)benzoate] belongs 400 nM; to `O=C(CC1CCC(F)(F)CC1)NCC(=O)N1CCN(Cc2cc(Cl)cc(Cl)c2)CC1` [Compound 1383, N-(2-(4-(3,5-dichlorobenzyl)piperazin-1-yl)-2-oxoethyl)-2-(4,4-difluorocyclohexyl)acetamide], more than 2000 nM.
The same measure, in the same setting: to `[2H]C([2H])(c1cc(Cl)ccc1NCc1ccc(C(=O)OC)cn1)N1CCN(C(=O)CNC(=O)C2CC23CCC(F)(F)CC3)CC1` (stereo not drawn) [Compound 1548, 6-{[4-Chloro-2-(4-{2-[(6,6-difluoro-spiro[2.5]octane-1-carbonyl)-amino]-acetyl}-piperazin-1-yl-di-deutero-methyl)-phenylamino]-methyl}-nicotinic acid methyl ester] belongs 7 nM; to `O=C(CC12CC3CC(CC(C3)C1)C2)NCC(=O)N1CCN(Cc2cc(Cl)c(F)cc2F)CC1` [Compound 1307, 2-((1R,3R,5S)-Adamantan-1-yl)-N-(2-(4-(5-chloro-2,4-difluorobenzyl)piperazin-1-yl)-2-oxoethyl)acetamide], 370 nM.
Where the note is “Vesicular stomatitis virus”, `NC(=O)c1ccc(COc2ccccc2CN2CCN(C(=O)CNC(=O)CC34CC5CC(CC(C5)C3)C4)CC2)cc1` [Compound 1260] displayed a concentration for half-maximal inhibition (IC50) of 700 nM.
`O=C(CC1CCC(F)(F)CC1)NCC(=O)N1CCN(Cc2cc(Cl)ccc2O)CC1` [Compound 1403, N-(2-(4-(5-Chloro-2-hydroxybenzyl)piperazin-1-yl)-2-oxoethyl)-2-(4,4-difluorocyclohexyl)acetamide]: for the setting “Vesicular stomatitis virus”, the IC50 fell in the range of 190 to 730 nM.
The same measure, in the same setting: to `COC(=O)c1ccc(COc2ccc(Cl)cc2CN2CCN(C(=O)CNC(=O)C3C4CC(F)(F)CC43)CC2)cc1` (stereo not drawn) [Compound 1346, Methyl 4-((4-chloro-2-((4-((3,3-difluorobicyclo[3.1.0]hexane-6-carbonyl)glycyl)piperazin-1-yl)methyl)phenoxy)methyl)benzoate] belongs 200 nM.
On the same count and under the same terms, to `COC(=O)c1ccc(COc2ccccc2CN2CCN(C(=O)CNC(=O)CC(C)(C)C(F)(F)F)CC2)cc1` [Compound 1278, Methyl 4-((2-((4-((4,4,4-trifluoro-3,3-dimethylbutanoyl)glycyl)piperazin-1-yl)methyl)phenoxy)methyl)benzoate] belongs more than 2000 nM.
`O=C(CC1CCC(F)(F)CC1)NCC(=O)N1CCN(Cc2cccc(Cl)c2Cl)CC1` [Compound 1382, N-(2-(4-(2,3-Dichlorobenzyl)piperazin-1-yl)-2-oxoethyl)-2-(4,4-difluorocyclohexyl)acetamide]: the concentration for half-maximal inhibition (IC50) (Vesicular stomatitis virus) was more than 2000 nM.
In the case of `O=C(CC12CC3CC(CC(C3)C1)C2)NCC(=O)N1CCN(Cc2cc(Cl)ccc2C(F)(F)F)CC1` [Compound 1308, 2-((1R,3R,5S)-Adamantan-1-yl)-N-(2-(4-(5-chloro-2-(trifluoromethyl)benzyl)piperazin-1-yl)-2-oxoethyl)acetamide], the half-inhibitory concentration (IC50) (read-out: IC50) is more than 2000 nM.
Take `Nc1ccc(Cl)cc1CN1CCN(C(=O)CNC(=O)C2CC23CCCC3)CC1` (stereo not drawn) [Compound 1806, N-(2-(4-(2-Amino-5-chlorobenzyl)piperazin-1-yl)-2-oxoethyl)spiro[2.4]heptane-1-carboxamide]: the IC50 (Vesicular stomatitis virus) amounted to 240 nM.
The same measure, in the same setting: to `Nc1ccc(-c2ccc(F)cc2)cc1CN1CCN(C(=O)CNC(=O)CC2CCC(F)(F)CC2)CC1` [Compound 1359, N-(2-(4-((4-Amino-4′-fluoro-[1,1′-biphenyl]-3-yl)methyl)piperazin-1-yl)-2-oxoethyl)-2-(4,4-difluorocyclohexyl)acetamide] belongs more than 2000 nM; to `O=C(CC12CC3CC(CC(C3)C1)C2)NCC(=O)N1CCN(Cc2cc(Cl)cc(Cl)c2Cl)CC1` [Compound 1350, 2-((1R,3R,5S)-adamantan-1-yl)-N-(2-oxo-2-(4-(2,3,5-trichlorobenzyl)piperazin-1-yl)ethyl)acetamide], 800 nM.
On to `Cc1ccc(Cl)cc1CN1CCN(C(=O)CNC(=O)C2CC23CCC(F)(F)CC3)CC1` (stereo not drawn) [Compound 1431, N-(2-(4-(5-Chloro-2-methylbenzyl)piperazin-1-yl)-2-oxoethyl)-6,6-difluorospiro[2.5]octane-1-carboxamide], for which, where the note is “Vesicular stomatitis virus”, the IC50 was found to be 550 nM.
The same measure, in the same setting: for `O=C(NCC(=O)N1CCN(Cc2cc(Cl)ccc2NCc2ncco2)CC1)[C@@H]1CC12CCC(F)(F)CC2` [Compound 1585] the value was 1300 nM.
Still for that read-out and setting: to `Nc1ccc(Cl)cc1CN1CCN(C(=O)CNC(=O)C2C3CC(F)(F)CC32)CC1` [Compound 1386, (1R,5S,6r)-N-(2-(4-(2-Amino-5-chlorobenzyl)piperazin-1-yl)-2-oxoethyl)-3,3-difluorobicyclo[3.1.0]hexane-6-carboxamide] belongs 4400 nM.
Same read-out and setting: to `O=C(CC12CC3CC(CC(C3)C1)C2)NCC(=O)N1CCN(Cc2cc(Cl)ccc2OC(F)(F)F)CC1` [Compound 1309, 2-((1R,3R,5S)-Adamantan-1-yl)-N-(2-(4-(5-chloro-2-(trifluoromethoxy)benzyl)piperazin-1-yl)-2-oxoethyl)acetamide] belongs 420 nM; to `O=C(CC12CC3CC(C1)C(C3)C2)NCC(=O)N1CCN(Cc2cc(F)ccc2OCc2ccc3nonc3c2)CC1` [Compound 1444], 25 nM; to `Nc1cc(Cl)cc(CN2CCN(C(=O)CNC(=O)C3CC34CCC(F)(F)CC4)CC2)c1` (stereo not drawn) [Compound 1388, N-(2-(4-(3-Amino-5-chlorobenzyl)piperazin-1-yl)-2-oxoethyl)-6,6-difluorospiro[2.5]octane-1-carboxamide], 500 nM.
Where the note is “Vesicular stomatitis virus”, `CC(=O)N1CCC(Oc2cc(F)cc(CN3CCN(C(=O)CNC(=O)C4CC45CCC(F)(F)CC5)CC3)c2)CC1` (stereo not drawn) [Compound 1442] gave a concentration for half-maximal inhibition (IC50) of 600 nM.
Still for that read-out and setting: to `CC(=O)Nc1ccc(COc2ccc(F)cc2CN2CCN(C(=O)CNC(=O)CC34CC5CC(C3)C(C5)C4)CC2)cc1` [Compound 1445] belongs 710 nM; to `COC(=O)c1ccc(COc2ccc(C#N)cc2CN2CCN(C(=O)CNC(=O)CC34CC5CC(CC(C5)C3)C4)CC2)cc1` [Compound 1117], 50 nM.
Turning to `O=C(CC12CC3CC(CC(C3)C1)C2)NCC(=O)N1CCN(Cc2cc(Br)ccc2F)CC1` [Compound 1337, 2-((1R,3R,5S)-Adamantan-1-yl)-N-(2-(4-(5-bromo-2-fluorobenzyl)piperazin-1-yl)-2-oxoethyl)acetamide], under “Vesicular stomatitis virus”, the concentration for half-maximal inhibition (IC50) was 1200 nM.
Still for that read-out and setting: for `O=C(CC1CCC(F)(F)CC1)NCC(=O)N1CCN(Cc2cc(Cl)ccc2F)CC1` [Compound 1367, N-(2-(4-(5-chloro-2-fluorobenzyl)piperazin-1-yl)-2-oxoethyl)-2-(4,4-difluorocyclohexyl)acetamide] the value was more than 2000 nM; for `O=C(Nc1ccccc1)Nc1ncc(Cl)cc1CN1CCN(C(=O)CNC(=O)C2CC23CCC(F)(F)CC3)CC1` (stereo not drawn) [Compound 1392, N-(2-(4-((5-Chloro-2-(3-phenylureido)pyridin-3-yl)methyl)piperazin-1-yl)-2-oxoethyl)-6,6-difluorospiro[2.5]octane-1-carboxamide], 1000 nM; for `[2H]C([2H])(c1cc(Cl)ccc1NCc1ccc(C#N)cn1)N1CCN(C(=O)CNC(=O)[C@@H]2CC23CCC(F)(F)CC3)CC1` [Compound 1584], 30 nM.
Still for that read-out and setting: to `Nc1c(Cl)cccc1CN1CCN(C(=O)CNC(=O)C2CC23CCC(F)(F)CC3)CC1` (stereo not drawn) [Compound 1407, N-(2-(4-(2-Amino-3-chlorobenzyl)piperazin-1-yl)-2-oxoethyl)-6,6-difluorospiro[2.5]octane-1-carboxamide] belongs 230 to 500 nM; to `O=C(CC1CCC(F)(F)CC1)NCC(=O)N1CCN(Cc2ccc(F)c(Cl)c2F)CC1` [Compound 1408], 4000 nM.
For the compound `O=C(CC1CCC(F)(F)CC1)NCC(=O)N1CCN(Cc2cc(Br)ccc2F)CC1` [Compound 1370, N-(2-(4-(5-Bromo-2-fluorobenzyl)piperazin-1-yl)-2-oxoethyl)-2-(4,4-difluorocyclohexyl)acetamide], where the note is “Vesicular stomatitis virus”, the half-maximal inhibitory concentration (IC50) was approximately 2200 nM.
Same read-out and setting: for `NC(=O)Nc1ccc(Br)cc1CN1CCN(C(=O)CNC(=O)CC2CCC(F)(F)CC2)CC1` [Compound 1360, N-(2-(4-(5-Bromo-2-ureidobenzyl)piperazin-1-yl)-2-oxoethyl)-2-(4,4-difluorocyclohexyl)acetamide] the value was more than 2000 nM; for `O=C(CC1CCC(F)(F)CC1)NCC(=O)N1CCN(Cc2cc(Br)ccc2NC(=O)C2CC2)CC1` [Compound 1375, N-(4-Bromo-2-((4-((2-(4,4-difluorocyclohexyl)acetyl)glycyl)piperazin-1-yl)methyl)phenyl)cyclopropanecarboxamide], more than 2000 nM; for `O=C(CC1CCC(F)(F)CC1)NCC(=O)N1CCN(Cc2cc(Cl)ccc2Cl)CC1` [Compound 1366, N-(2-(4-(2,5-Dichlorobenzyl)piperazin-1-yl)-2-oxoethyl)-2-(4,4-difluorocyclohexyl)acetamide], more than 2000 nM.
